Molecules are shown by their SMILES.

This assay relates to middle cerebral artery (MCA) occlusion. To be noted: rat, 2 h MCA occlusion, 24 h reperfusion, 0.03 mg/kg iv bolus at 30 minutes. As for the experimental part:
Six male Sprague Dawley rats (300 g) were anesthetized with haloethane and subjected to middle cerebral artery (MCA) occlusion using a nylon filament for 2 h. Subsequently, the filament was removed and reperfusion of the infarcted tissue occurred for 24 hours before the rat was sacrificed.
Staining of coronal sections (2.0 mm×7-8) with triphenyltetrazolium chloride ([…]) taken throughout the brain were evaluated under blinded conditions using image analysis to determine infarct size.
The infarct was also expressed as a percentage of the contralateral (non-infarcted) hemisphere to provide an indication of how much of the ipsilateral (infarcted) hemisphere was actually damaged by the procedure. Because edema is present in the infarcted hemisphere, it is often impossible to directly ascertain the percentage of the ipsilateral hemisphere that has been damaged.
Rats were given iv bolus injections (1.0 mL/kg) of either vehicle (10% PEG 200/saline; n=3) or N-(2-pyrazine)carbonyl-L-phenylalanine-L-leucine boronic acid (0.03 mg/kg; n=3) at 30 minutes, 2 hours, and 6 hours after the start of the occlusion.

As for `CC(C)CC(NC(=O)C(Cc1ccccc1)NC(=O)c1cnccn1)B(O)O` [N-(2-pyrazine)carbonyl-L-phenylalanine-L-leucine boronic acid], the “Infarct volume decreased on the ipsilateral hemisphere” value (2 hours and 6 hours after start of occlusion, vs vehicle) came out at 62%. The “Total damage of the hemisphere (infarct as percentage of contralateral hemisphere)” value (2 hours and 6 hours, vehicle 19%) amounted to 2%.

Values taken from US20030069189A1, “Treatment of infarcts” (Millennium Pharmaceuticals, Inc., priority 1997, published 2003).
